# What was measured:
# [1] = test system: acetylcholine activity on bladder; assay: Inhibition of acetylcholine activity on the bladder in the guinea pig; assay type: in vivo; settings: Cavia porcellus, iv, 5 min; anaesthetised guinea pig; 5 minutes after test substance; 10 microgram/kg acetylcholine i.v. and i.a.; contraction of exposed bladder; read-out: log ED50, Bladder (converted)
# Experimental: (§1) 5 minutes after the administration of the test substance, 10 microgram/kg of acetylcholine were simultaneously injected intravenously and intra-arterially into anaesthetised guinea pigs. The heart rate was recorded directly by extracorporeal derivation of the ECG, the expiration resistance according to Konzett-Rossler and contraction of the exposed bladder. In order to determine the inhibition of the acetylcholine activity on the organs under investigation, dosage/activity curves were recorded and from them -log ED50 values were determined. […] The following compounds for example were investigated as described above: […]
# [2] = test system: acetylcholine activity on heart rate; assay: Inhibition of acetylcholine activity on heart rate in the guinea pig; assay type: in vivo; settings: Cavia porcellus, iv, 5 min; anaesthetised guinea pig; 5 minutes after test substance; 10 microgram/kg acetylcholine i.v. and i.a.; heart rate by ECG; read-out: log ED50, Heart (converted)
# Experimental: as §1
# [3] = test system: rise in blood pressure (M1); assay: M1/M2 selectivity in the rat: reduction of rise in blood pressure caused by McN-A-343 (M1); assay type: in vivo, rat (male THOM); settings: iv, 5 minutes before 0.3 mg/kg McN-A-343 i.v., 50% reduction of rise in blood pressure (M1), read-out: log ED50, Blood pressure (converted)
# Experimental: (§2) The dosage of the substances which reduced either the vagal bradycardia (M2) or the rise in blood pressure (M1) by 50% was determined graphically. For the results see Table II.
# vagal bradycardia (M2) = assay: M1/M2 selectivity in the rat: reduction of vagal bradycardia (M2); assay type: in vivo, rat (male THOM); settings: iv, 5 minutes before vagus stimulation, 50% reduction of vagal bradycardia (M2), read-out: log ED50, Heart (converted)
# Experimental: as §2
# secretion of saliva = assay: Salivation-inhibiting effect in the rat (pilocarpine); assay type: in vivo, rat (male THOM); settings: iv; urethane-anaesthetised rat; i.v.; 2 mg/kg pilocarpine s.c.; 50% reduction of saliva volume; read-out: log ED50, Salivation (converted)
# Experimental: The secretion of saliva was initiated by subcutaneous administration of 2 mg/kg of pilocarpine. The saliva was absorbed with blotting paper and the surface area covered was measured every 5 minutes by planimetry. The dosage of the substance which reduced the volume of saliva by 50% was determined graphically. For the results see Table II.
# [4] = molecular target: T1, muscarinic receptors (heart) (Rattus norvegicus, UniProt P10980); assay: Receptor binding test in vitro, heart (3H-N-methylscopolamine displacement); set-up: species or system rat (male Sprague-Dawley); settings: whole heart; 0.3 nanomolar 3H-NMS; 30° C.; 45 minutes; pH 7.4
# T1 construct: The whole heart was cut up with scissors; All the organs were then homogenised in a Potter apparatus; from tissue; host or cells: rat whole heart homogenate
# T1 sequence (P10980 1-466): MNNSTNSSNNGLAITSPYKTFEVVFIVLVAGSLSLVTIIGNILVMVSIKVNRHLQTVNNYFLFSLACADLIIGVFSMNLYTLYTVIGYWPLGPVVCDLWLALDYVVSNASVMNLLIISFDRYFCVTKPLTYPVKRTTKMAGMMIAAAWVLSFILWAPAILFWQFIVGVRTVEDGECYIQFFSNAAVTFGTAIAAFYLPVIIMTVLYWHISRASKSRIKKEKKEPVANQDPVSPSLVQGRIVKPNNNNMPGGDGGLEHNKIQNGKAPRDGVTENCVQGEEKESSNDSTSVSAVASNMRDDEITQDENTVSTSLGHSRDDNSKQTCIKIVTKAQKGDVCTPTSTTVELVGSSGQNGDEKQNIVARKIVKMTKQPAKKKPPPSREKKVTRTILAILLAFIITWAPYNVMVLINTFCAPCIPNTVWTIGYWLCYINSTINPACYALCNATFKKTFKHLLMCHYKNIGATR
# Experimental: (§3) The organs were donated by male Sprague-Dawley rats weighing 180-220 g. After the heart and submandibular gland and cerebral cortex had been removed, all other steps were carried out in ice cold Hepes HCl buffer (pH 7.4; 100 millimolar NaCl, 10 millimolar MgCl2). The whole heart was cut up with scissors. All the organs were then homogenised in a Potter apparatus.
# (§4) For the binding test the homogenised organs were diluted as follows:
# (§5) The homogenised organs were incubated at a certain concentration of the radioaligned and at a series of concentrations of the non-radioactive test substances in an Eppendorf centrifuge tube at 30° C. Incubation lasted 45 minutes. The radioligand used was 0.3 nanomolar ^3 H-N-methylscopolamine (^3 H-NMS). Incubation was ended by the addition of ice cold buffer followed by vacuum filtration. The filters were rinsed with cold buffer and their radioactivity was determined. It represents the sum of specific and non-specific binding of ^3 H-NMS. The proportion of non-specific binding was defined as the radioactivity which was bound in the presence of 1 micromolar quinuclidinylbenzylate. Each measurement was taken four times. The IC50 values of the non-labelled test substances were determined graphically. They represent that concentration of test substance at which the specific binding of ^3 H-NMS to the muscarinic receptors in the various organs was inhibited by 50%. […] PG,17
# [5] = test system: acetylcholine activity on bronchi; assay: Inhibition of acetylcholine activity on the bronchi in the guinea pig; assay type: in vivo; settings: Cavia porcellus, iv, 5 min; anaesthetised guinea pig; 5 minutes after test substance; 10 microgram/kg acetylcholine i.v. and i.a.; expiration resistance (Konzett-Rossler); read-out: log ED50, Bronchi (converted)
# Experimental: as §1
# [6] = molecular target: muscarinic receptors (cerebral cortex); assay: Receptor binding test in vitro, cerebral cortex (3H-N-methylscopolamine displacement); set-up: species or system rat (male Sprague-Dawley); settings: 0.3 nanomolar 3H-NMS, 30° C., 45 minutes, pH 7.4
# Experimental: as §3, §4, §5
# [7] = molecular target: T2, muscarinic receptors (submandibular gland) (Rattus norvegicus, UniProt P08483); assay: Receptor binding test in vitro, submandibular gland (3H-N-methylscopolamine displacement); set-up: species or system rat (male Sprague-Dawley); settings: 0.3 nanomolar 3H-NMS, 30° C., 45 minutes, pH 7.4
# T2 construct: All the organs were then homogenised in a Potter apparatus; from tissue; host or cells: rat submandibular gland homogenate
# Experimental: as §3, §4, §5
# T2 sequence (P08483 whole entry): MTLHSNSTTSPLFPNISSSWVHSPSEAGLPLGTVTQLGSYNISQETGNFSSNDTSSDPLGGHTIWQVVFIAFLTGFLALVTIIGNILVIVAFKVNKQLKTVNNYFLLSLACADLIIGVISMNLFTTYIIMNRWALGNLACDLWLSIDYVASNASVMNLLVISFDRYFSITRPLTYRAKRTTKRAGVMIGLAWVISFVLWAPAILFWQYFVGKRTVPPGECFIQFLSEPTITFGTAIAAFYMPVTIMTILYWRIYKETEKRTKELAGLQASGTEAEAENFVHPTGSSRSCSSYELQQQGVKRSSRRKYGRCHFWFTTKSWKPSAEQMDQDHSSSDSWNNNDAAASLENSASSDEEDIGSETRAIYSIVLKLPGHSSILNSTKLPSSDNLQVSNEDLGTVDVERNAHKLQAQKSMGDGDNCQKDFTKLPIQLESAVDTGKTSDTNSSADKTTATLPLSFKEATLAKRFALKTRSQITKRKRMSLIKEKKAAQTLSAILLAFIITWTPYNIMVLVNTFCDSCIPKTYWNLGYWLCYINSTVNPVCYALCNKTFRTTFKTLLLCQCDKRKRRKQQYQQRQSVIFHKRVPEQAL
IC50 [4],IC50 [6],IC50 [7],SMILES,ED50 [1],ED50 [2],ED50 [3],ED50 (vagal bradycardia (M2)),ED50 (secretion of saliva),ED50 [5]
9 nM,50 nM,200 nM,O=C1Nc2cccnc2N(C(=O)CN2CCC(CCCCN3CCCCC3)CC2)c2ccccc21 [C],2.63 µmol/kg,0.0871 µmol/kg,3.8 µmol/kg,0.115 µmol/kg,> 31.6 µmol/kg,0.661 µmol/kg
20 nM,200 nM,550 nM,O=C1Nc2cccnc2N(C(=O)CN2CCC(CCCN3CCCCC3)CC2)c2ccccc21 [B],1.82 µmol/kg,0.123 µmol/kg,–,–,–,0.468 µmol/kg
50 nM,500 nM,1500 nM,CN1CCC(CCCC2CCN(CC(=O)N3c4ccccc4C(=O)Nc4cccnc43)CC2)CC1 [D],> 10 µmol/kg,0.355 µmol/kg,–,–,–,0.851 µmol/kg

# Second part, the compound before the results:
SMILES,IC50 [4],IC50 [6],IC50 [7],ED50 [1],ED50 [2],ED50 [3],ED50 (vagal bradycardia (M2)),ED50 (secretion of saliva),ED50 [5]
CN1[C@@H]2CC[C@H]1CC(OC(=O)C(CO)c1ccccc1)C2 (stereo partly drawn) [G],–,–,–,0.0933 µmol/kg,0.02 µmol/kg,0.0457 µmol/kg,0.0115 µmol/kg,–,–
Cc1scc2c1N(C(=O)CN1CCC(CCCN3CCCCC3)CC1)c1ccccc1NC2=O [A],5 nM,60 nM,200 nM,2.75 µmol/kg,0.123 µmol/kg,1.51 µmol/kg,0.0724 µmol/kg,6.31 µmol/kg,0.282 µmol/kg
"CCN(CC)CC1CCCCN1CC(=O)N1c2ccccc2C(=O)Nc2cccnc21 (stereo not drawn) [Substance E, 11-[[2-[(diethylamino)methyl]-1-piperidinyl]acetyl]-5,11-dihydro-6H-pyrido [2,3-b][1,4]benzodiazepin-6-one, reference compound]",–,–,–,18.6 µmol/kg,1.45 µmol/kg,–,0.38 µmol/kg,10 µmol/kg,2.63 µmol/kg
CN1CCN(CC(=O)N2c3ccccc3C(=O)Nc3cccnc32)CC1 [F],–,–,–,4.37 µmol/kg,1.41 µmol/kg,–,–,–,0.269 µmol/kg
